Measured values reported in patent US20240252581A1, “COMPOSITIONS AND METHODS FOR TREATING RESPIRATORY DISTRESS” (S.I.S. SHULOV INNOVATIVE SCIENCE LTD., priority 2021, published 2024).
“And” between values parts separate entries of the source, which are not always exact repeats. Identical values can stand only once. Square brackets hold non-standard residues; d marks the D form. Peptide text beside a SMILES is read from it. * marks the point of attachment. pGlu = O=C1CC[C@@H](C(=O)O)N1; Octanoyl = CCCCCCCC(=O)*

Experiments:
ACE2 mRNA = experiment: Relative ACE2 mRNA expression in lung tissue (real-time quantitative PCR); type: in vivo, mouse; conditions: in relation to rplO gene
Protocol: In order to test the efficacy of ZEP3 sodium on lung inflammation, the lipopolysaccharide (LPS)-induced acute lung injury model was used. In particular, LPS was administered intratracheally at doses of 10 or 40 mg/kg body weight (BW) corresponding to 0.2 or 0.8 mg/mouse, respectively.
Relative ACE2 mRNA expression in lung tissue was determined as follows: mRNA was extracted from lung tissues, real-time quantitative PCR was employed, and expression of ACE2 gene in relation to rplO gene was measured.

[1] = Toxicity of ZEP3Na in intratracheal administration, daily for 14 days; type: in vivo, rats
Protocol: The toxicological effect of ZEP3Na administered intratracheally to rats was evaluated. Doses of 0.5, 1.0, and 2.5 mg ZEP3Na dissolved in saline were administered daily into the lungs for a period of 14 days. On day 15, necroscopy and histology of brain, heart, thymus, lungs, spleen, liver, kidneys, and gonads were performed. In addition, blood cell counts and chemistry parameters were counted. Also, the cell distribution (%) of the bronchial alveolar lavage fluid (BALF) was determined by FACS instrumentation for B cells, T cells, neutrophils, and macrophages.

[2] = Oxygen saturation in mouse model of LPS-inflamed lungs (Rodent Pulse Oximeter); type: in vivo, Balb/C female mice; conditions: for Oxygen saturation, group mean: mean of 10 mice; for Oxygen saturation, individual mouse: single animals
Protocol: Evaluation of the effect of ZEP3Na administration via inhalation on oxygen saturation in a mouse model of inflamed lungs by the lipopolysaccharides (LPS) was performed. Oxygen saturation testing was performed at several time points on mice that have been anesthetized by isoflurane. A sensor was attached to the hind foot of the mice and the percentage of oxygen in the blood was measured using the Rodent Pulse Oximeter instrument (Kent Scientific).
Following LPS intratracheal instillation, a marked reduction in blood oxygen saturation levels was detected. ZEP3Na was then administered by inhalation at two doses 6 h and 14 h after LPS administration and the effect of ZEP3Na on blood oxygen saturation was monitored 0, 2, 6, 12, 24 and 48 hours following ZEP3Na administration. Saturation data was analyzed by ANOVA followed by Tukey-Kramer test. Significance level was defined as ∝=0.05.

[3] = rats, 0.5, 1.0, and 2.5 mg intratracheally daily for 14 days
[4] = Group 2: LPS 800 μg + ZEP3Na 10 mg by inhalation at 6 h, time point 0 h
[5] = Group 2: LPS 800 μg + ZEP3Na 10 mg by inhalation at 6 h, time point 2 h
[6] = Group 2: LPS 800 μg + ZEP3Na 10 mg by inhalation at 6 h, time point 6 h
[7] = Group 2: LPS 800 μg + ZEP3Na 10 mg by inhalation at 6 h, time point 12 h
[8] = Group 2: LPS 800 μg + ZEP3Na 10 mg by inhalation at 6 h, time point 24 h
[9] = Group 2: LPS 800 μg + ZEP3Na 10 mg by inhalation at 6 h, time point 48 h
[10] = Group 3: LPS 800 μg + ZEP3Na 10 mg by inhalation at 6 h + 14 h, time point 0 h
[11] = Group 3: LPS 800 μg + ZEP3Na 10 mg by inhalation at 6 h + 14 h, time point 2 h
[12] = Group 3: LPS 800 μg + ZEP3Na 10 mg by inhalation at 6 h + 14 h, time point 6 h
[13] = Group 3: LPS 800 μg + ZEP3Na 10 mg by inhalation at 6 h + 14 h, time point 12 h
[14] = Group 3: LPS 800 μg + ZEP3Na 10 mg by inhalation at 6 h + 14 h, time point 24 h
[15] = Group 3: LPS 800 μg + ZEP3Na 10 mg by inhalation at 6 h + 14 h, time point 48 h
[16] = Group 4: LPS 800 μg + ZEP3Na 50 mg by inhalation at 6 h, time point 0 h
[17] = Group 4: LPS 800 μg + ZEP3Na 50 mg by inhalation at 6 h, time point 2 h
[18] = Group 4: LPS 800 μg + ZEP3Na 50 mg by inhalation at 6 h, time point 6 h
[19] = Group 4: LPS 800 μg + ZEP3Na 50 mg by inhalation at 6 h, time point 12 h
[20] = Group 4: LPS 800 μg + ZEP3Na 50 mg by inhalation at 6 h, time point 24 h
[21] = Group 4: LPS 800 μg + ZEP3Na 50 mg by inhalation at 6 h, time point 48 h
[22] = Group 5: LPS 800 μg + ZEP3Na 50 mg by inhalation at 6 h + 14 h, time point 0 h
[23] = Group 5: LPS 800 μg + ZEP3Na 50 mg by inhalation at 6 h + 14 h, time point 2 h
[24] = Group 5: LPS 800 μg + ZEP3Na 50 mg by inhalation at 6 h + 14 h, time point 6 h
[25] = Group 5: LPS 800 μg + ZEP3Na 50 mg by inhalation at 6 h + 14 h, time point 12 h
[26] = Group 5: LPS 800 μg + ZEP3Na 50 mg by inhalation at 6 h + 14 h, time point 24 h
[27] = Group 5: LPS 800 μg + ZEP3Na 50 mg by inhalation at 6 h + 14 h, time point 48 h
[28] = administration by inhalation, 800 μg LPS

Structure (SMILES): CCCCCCCC(=O)NCCCC[C@H](NC(=O)[C@H](Cc1c[nH]c2ccccc12)NC(=O)[C@H](CC(N)=O)NC(=O)[C@@H]1CCC(=O)N1)C(=O)O [ZEP3Na, pGlu-Asn-Trp-Lys(Octanoyl)-ONa] ([pGlu]NWK(Octanoyl)-OH)
- Relative ACE2 mRNA expression (Mean ± SEM) (ACE2 mRNA; LPS 0.2 mg + ZEP3 Na 0.1 mg): 0.672 ± 0.145
- Relative ACE2 mRNA expression (Mean ± SEM) (ACE2 mRNA; LPS 0.2 mg + ZEP3 Na 0.4 mg): 1.239 ± 0.132
- Relative ACE2 mRNA expression (Mean ± SEM) (ACE2 mRNA; LPS 0.8 mg + ZEP3 Na 0.1 mg): 0.223 ± 0.031
- Relative ACE2 mRNA expression (Mean ± SEM) (ACE2 mRNA; LPS 0.8 mg + ZEP3 Na 0.1 mg, listed as ZEP3 sodium): 0.22
- Relative ACE2 mRNA expression (Mean ± SEM) (ACE2 mRNA; LPS 0.8 mg + ZEP3 Na 0.4 mg): 0.805 ± 0.251
- Relative ACE2 mRNA expression (Mean ± SEM) (ACE2 mRNA; ZEP3 Na 0.1 mg, no LPS): 1.750 ± 0.320
- Relative ACE2 mRNA expression (Mean ± SEM) (ACE2 mRNA; ZEP3 Na 0.4 mg, no LPS): 0.303 ± 0.025
- blood counts and chemistry [1, 3]: comparable to the reference items
- body weight [1, 3]: remained similar to that of the control group
- mortality or abnormal signs of behavior [1, 3]: No mortality or abnormal signs of behavior
- distribution of B cells, T cells, neutrophils, and macrophages in BALF ([1]; rats, 0.5, 1.0, and 2.5 mg intratracheally daily for 14 days, FACS): No changes
- necroscopy and histology of the inspected organs ([1]; rats, day 15, brain, heart, thymus, lungs, spleen, liver, kidneys, gonads): no pathological changes
- adverse effects in all parameters tested ([1]; rats, intratracheal, up to 2.5 mg daily for 14 days): did not result in any detectable adverse effects
- Oxygen saturation, group mean [2, 4]: 97.2%
- Oxygen saturation, individual mouse [2, 4]: 99% (4×) and 93% and 97% and 98% (2×) and 95% (2×)
- Oxygen saturation, group mean [2, 5]: 70.0%
- Oxygen saturation, individual mouse [2, 5]: 77% and 67% and 78% (2×) and 61% and 71% and 59% and 72% and 74% and 63%
- Oxygen saturation, group mean [2, 6]: 86.2%
- Oxygen saturation, individual mouse [2, 6]: 81% and 88% (2×) and 87% (2×) and 91% and 82% and 84% and 85% and 89%
- Oxygen saturation, group mean [2, 7]: 93.5%
- Oxygen saturation, individual mouse [2, 7]: 92% (2×) and 96% and 95% (2×) and 93% and 90% and 94% (3×)
- Oxygen saturation, group mean [2, 8]: 89.0%
- Oxygen saturation, individual mouse [2, 8]: 86% (2×) and 87% and 89% and 88% and 90% (2×) and 83% and 92% and 99%
- Oxygen saturation, group mean [2, 9]: 92.9%
- Oxygen saturation, individual mouse [2, 9]: 91% (5×) and 94% and 97% (3×) and 89%
- Oxygen saturation, group mean [2, 10]: 96.2%
- Oxygen saturation, individual mouse [2, 10]: 97% (2×) and 96% and 99% (2×) and 94% (2×) and 93% and 95% and 98%
- Oxygen saturation, group mean [2, 11]: 71.1%
- Oxygen saturation, individual mouse [2, 11]: 70% and 68% and 71% (2×) and 80% and 73% and 64% and 75% and 62% and 77%
- Oxygen saturation, group mean [2, 12]: 87.1%
- Oxygen saturation, individual mouse [2, 12]: 86% (2×) and 88% (2×) and 89% (2×) and 92% and 81% and 82% and 90%
- Oxygen saturation, group mean [2, 13]: 92.5%
- Oxygen saturation, individual mouse [2, 13]: 92% (2×) and 90% (2×) and 94% and 97% and 95% and 88% and 91% and 96%
- Oxygen saturation, group mean [2, 14]: 92.1%
- Oxygen saturation, individual mouse [2, 14]: 96% (2×) and 94% and 88% and 86% and 93% (3×) and 92% and 90%
- Oxygen saturation, group mean [2, 15]: 93.0%
- Oxygen saturation, individual mouse [2, 15]: 91% (4×) and 92% (2×) and 97% (2×) and 94% (2×)
- Oxygen saturation, group mean [2, 16]: 97.2%
- Oxygen saturation, individual mouse [2, 16]: 95% (3×) and 97% (3×) and 99% (4×)
- Oxygen saturation, group mean [2, 17]: 72.7%
- Oxygen saturation, individual mouse [2, 17]: 69% and 81% and 72% (2×) and 73% and 79% (2×) and 65% and 66% and 71%
- Oxygen saturation, group mean [2, 18]: 86.7%
- Oxygen saturation, individual mouse [2, 18]: 86% (3×) and 90% and 88% (2×) and 87% (2×) and 85% and 84%
- Oxygen saturation, group mean [2, 19]: 94.5%
- Oxygen saturation, individual mouse [2, 19]: 93% and 89% and 94% (3×) and 95% and 96% (3×) and 98%
- Oxygen saturation, group mean [2, 20]: 94.0%
- Oxygen saturation, individual mouse [2, 20]: 93% (2×) and 94% and 95% (2×) and 90% and 99% and 92% (2×) and 97%
- Oxygen saturation, group mean [2, 21]: 97.0%
- Oxygen saturation, individual mouse [2, 21]: 93% and 95% and 98% (5×) and 99% and 97% and 96%
- Oxygen saturation, group mean [2, 22]: 96.6%
- Oxygen saturation, individual mouse [2, 22]: 97% (3×) and 94% (2×) and 96% and 99% (2×) and 98% and 95%
- Oxygen saturation, group mean [2, 23]: 71.8%
- Oxygen saturation, individual mouse [2, 23]: 63% and 71% and 69% and 92% and 73% and 75% and 72% and 76% and 66% and 61%
- Oxygen saturation, group mean [2, 24]: 86.8%
- Oxygen saturation, individual mouse [2, 24]: 88% (2×) and 90% and 84% and 89% and 86% (2×) and 85% (2×) and 87%
- Oxygen saturation, group mean [2, 25]: 94.0%
- Oxygen saturation, individual mouse [2, 25]: 92% and 94% (3×) and 90% and 93% and 95% (2×) and 96% and 97%
- Oxygen saturation, group mean [2, 26]: 93.8%
- Oxygen saturation, individual mouse [2, 26]: 90% and 91% (3×) and 93% (2×) and 98% (2×) and 99% and 94%
- Oxygen saturation, group mean [2, 27]: 97.1%
- Oxygen saturation, individual mouse [2, 27]: 99% (3×) and 97% (3×) and 91% and 98% (2×) and 96%
- elevation in oxygen saturation levels as compared to LPS with no treatment [2, 28]: ≤ 20%
- oxygen saturation levels that have been reduced by LPS [2, 28]: significantly increased
- time following treatment at which increase in oxygen saturation is statistically significant ([2]; administration by inhalation, LPS model): 12 h
- animal weight ([2]; throughout the experiment): substantially constant
